Laboratory results: ChEMBL document CHEMBL4834452, “Discovery of a novel series of substituted quinolines acting as anticancer agents and selective EGFR blocker: Molecular docking study” (Bioorg Med Chem Lett, 2021)

Legend:
[1] = tested on: MCF7; test: Anticancer activity against human MCF7 cells assessed as cell growth inhibition measured by MTT assay; assay type: functional, cell-based
[2] = tested on: HepG2; test: Anticancer activity against human HepG2 cells assessed as cell growth inhibition measured by MTT assay; assay type: functional, cell-based
[3] = tested on: HCT-116; test: Anticancer activity against human HCT-116 cells assessed as cell growth inhibition measured by MTT assay; assay type: functional, cell-based
[4] = tested on: PC-3; test: Anticancer activity against human PC-3 cells assessed as cell growth inhibition measured by MTT assay; assay type: functional, cell-based
[5] = target: Epidermal growth factor receptor (Homo sapiens, UniProt P00533); test: Inhibition of recombinant wild type EGFR-TK (unknown origin) by ELISA
Chain of Epidermal growth factor receptor (P00533 whole entry): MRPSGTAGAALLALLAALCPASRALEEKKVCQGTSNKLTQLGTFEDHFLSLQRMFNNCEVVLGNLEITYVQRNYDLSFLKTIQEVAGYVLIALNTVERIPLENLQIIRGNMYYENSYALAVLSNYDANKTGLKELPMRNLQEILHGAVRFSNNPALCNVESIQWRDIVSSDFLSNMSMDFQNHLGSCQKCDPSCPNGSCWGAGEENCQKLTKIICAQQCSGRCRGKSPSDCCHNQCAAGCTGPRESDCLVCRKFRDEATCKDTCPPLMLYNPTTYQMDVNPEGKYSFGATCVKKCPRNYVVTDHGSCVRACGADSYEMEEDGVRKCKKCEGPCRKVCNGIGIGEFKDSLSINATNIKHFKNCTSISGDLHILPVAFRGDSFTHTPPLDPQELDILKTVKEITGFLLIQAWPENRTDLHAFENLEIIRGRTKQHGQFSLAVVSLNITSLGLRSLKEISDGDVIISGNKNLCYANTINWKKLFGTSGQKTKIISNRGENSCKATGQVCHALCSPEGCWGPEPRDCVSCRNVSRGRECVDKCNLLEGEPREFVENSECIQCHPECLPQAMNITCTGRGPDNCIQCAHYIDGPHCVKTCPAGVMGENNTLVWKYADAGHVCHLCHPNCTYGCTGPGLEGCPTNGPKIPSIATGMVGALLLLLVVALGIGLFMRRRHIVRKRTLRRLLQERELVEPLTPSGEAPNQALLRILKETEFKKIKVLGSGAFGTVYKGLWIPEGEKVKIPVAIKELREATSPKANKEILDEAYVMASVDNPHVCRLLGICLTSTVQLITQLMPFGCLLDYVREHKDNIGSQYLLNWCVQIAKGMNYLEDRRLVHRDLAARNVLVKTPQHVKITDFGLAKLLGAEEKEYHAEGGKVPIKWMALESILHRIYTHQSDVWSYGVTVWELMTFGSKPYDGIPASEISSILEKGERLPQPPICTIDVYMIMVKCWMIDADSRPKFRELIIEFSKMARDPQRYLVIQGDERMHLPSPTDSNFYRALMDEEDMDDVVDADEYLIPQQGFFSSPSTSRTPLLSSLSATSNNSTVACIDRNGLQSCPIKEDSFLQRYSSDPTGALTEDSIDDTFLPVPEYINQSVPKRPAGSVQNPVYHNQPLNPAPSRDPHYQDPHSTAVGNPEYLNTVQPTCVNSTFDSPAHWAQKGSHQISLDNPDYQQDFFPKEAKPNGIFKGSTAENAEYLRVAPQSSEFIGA

Row | SMILES | IC50 [1] | IC50 [2] | IC50 [3] | IC50 [4] | IC50 [5]
1 | C#Cc1cccc(Nc2ncnc3cc(OCCOC)c(OCCOC)cc23)c1 [ERLOTINIB] | 11.6 µM | 17.7 µM | 20.5 µM | 26.9 µM | 
2 | COc1ccc(NC(c2ccc(OC)cc2)n2c(=O)ccc3cc(O)ccc32)cc1 (centres undefined) | 49.2 µM | 61.4 µM | 73.3 µM | 85.3 µM | 5.29 µM
3 | COc1ccc(C(Nc2ccc(Cl)cc2)n2c(=O)ccc3cc(O)ccc32)cc1 (centres undefined) | 11.3 µM | 21.5 µM | 20.4 µM | 35.2 µM | 1.13 µM
4 | COc1ccc(C(Nc2ccccc2)n2c(=O)ccc3cc(O)ccc32)cc1 (centres undefined) | 35.1 µM | 46.3 µM | 53.7 µM | 79.7 µM | 14.3 µM
5 | COc1ccc(C(Nc2ccc([N+](=O)[O-])cc2)n2c(=O)ccc3cc(O)ccc32)cc1 (centres undefined) | 21.1 µM | 29.7 µM | 36.6 µM | 48 µM | 1.35 µM
6 | COc1ccc(C(Nc2ccc(Br)cc2)n2c(=O)ccc3cc(O)ccc32)cc1 (centres undefined) | 10.8 µM | 18.3 µM | 19.6 µM | 32.9 µM | 0.96 µM
